Data taken from US20190381015A1, “PHARMACEUTICAL USE OF BERBERINE” (priority 2016, published 2019).
Entries after “also recorded” stand apart in the source; their conditions may differ.

What was measured:
[1] = tested on: pulmonary arterial smooth muscle cells; assay: Noradrenaline-stimulated pulmonary arterial smooth muscle cells: Grk2 and LKB1; type: cell-based; conditions: pulmonary arterial smooth muscle cells of normal animals, berberine added for 30 minutes (CTL group), FIG. 1
Description: FIG. 1 is a schematic diagram of berberine inhibiting noradrenaline. The pulmonary arterial smooth muscle cells are stimulated with noradrenaline (NE) for 2 hours and then randomly divided into a berberine group (Ctl group, berberine for 4 hours) and a control group. In the control group, cells are collected at various time points (30 minutes-4 hours) after the grouping, and the protein phosphorylation activities of liver kinase B1 (LKB1) and G-protein coupled receptor kinase 2 (Grk2) are measured. GAPDH is an internal reference protein.

[2] = cited from earlier work
[3] = tested on: myocardial infarction model; assay: Myocardial infarction animal model; type: in vivo
Source text: FIG. 6 is an experimental result diagram showing berberine for prevention and treatment of ischemic cardiomyopathy.
30 animals in the myocardial infarction model were randomly divided into a control group and a berberine group by intragastric gavage.

[4] = tested on: pulmonary hypertension induced by dehydrogenated monocrotaline; assay: Dehydrogenated monocrotaline-induced pulmonary hypertension in beagles; type: in vivo
Source text: FIG. 2 is a mirror view for a contrast experiment of berberine inhibiting pulmonary artery remodeling. Animals with pulmonary hypertension are randomly divided into a normal control group, a berberine group, and a blank group without treatment. Histochemical staining (HE) and vascular endothelial vWF staining, smooth muscle cell staining (SMA).
20 beagles were selected, were subjected to pulmonary hemodynamics measurement, and then were randomly divided into a berberine group ([…]) and a control group (intragastric gavage of a berberine coating, without berberine, 14 days in total). […] Results: the mean pulmonary arterial pressure of only one animal in the berberine group reaches 28 mmHg, and the mean pulmonary arterial pressures of the other 9 animals are all <25 mmHg (19±3.0 mmHg). In contrast, the mean pulmonary arterial pressures of 8 animals in the control group are all >26 mmHg (28.4±2.1 mmHg), one animal for 24.6 mmHg, and the other one for 24.8 mmHg.

in-stent restenosis = assay: In-stent restenosis in patients with drug-eluting stent implantation; type: in vivo, human
Description: FIG. 5 is an experimental control diagram of berberine in the prevention and treatment of in-stent restenosis.
100 patients with drug-eluting stent implantation were randomly divided into two groups: a control group (without additional berberine) and a berberine group (additionally administered with berberine at 0.3 g/d since the 3th month after surgery for a total of 6 months), and coronary angiography was performed again at the 12th month after surgery.

[5] = tested on: idiopathic pulmonary hypertension; assay: Clinical experiment in patients with idiopathic pulmonary hypertension; type: in vivo, human; conditions: berberine 0.3 g/d for 3 months added to original targeted drugs, 3 per group
Source text: FIG. 4 is a histogram of contrast experiment data showing that berberine reduces the mean pulmonary arterial pressure. […] Every three data columns in the figure are a group, and are a normal group, a blank group, and a berberine group from left to right in sequence.
Six patients with idiopathic pulmonary hypertension were divided into two groups (3 in each group): a control group (administered with targeted drugs according to the original doses) and a berberine group (based on the original targeted drugs, additionally administered with berberine at 0.3 g/d for a total of 3 months).

[6] = tested on: acute myocardial infarction; assay: Cardiac failure in patients with acute myocardial infarction / ischemic cardiomyopathy; type: in vivo, human
Source text: 40 patients with acute myocardial infarction were randomly divided into a control group and a berberine group (0.3 g, three times a day, three months later). The mean left ventricular ejection fraction of the control group is 41%, while the mean left ventricular ejection fraction of the berberine group is increased to 53% (p=0.037).

[7] = beagles, intragastric gavage 0.1 g/d for 14 days before dehydrogenated monocrotaline 60 mg/kg, retested after 8 weeks, 9 of 10 animals

Question: What does the source list for `COc1ccc2cc3[n+](cc2c1OC)CCc1cc2c(cc1-3)OCO2` [berberine]?
Answer: Grk2 and LKB1 after noradrenaline stimulation [1]: significant decrease; solubility in benzene, diethyl ether, and chloroform ([2]; benzene, diethyl ether, chloroform): insoluble; solubility in water ([2]; water): soluble; arrangement of cardiomyocytes ([3]; berberine treatment group): arranged intactly; apoptotic bodies (electron microscopy) ([3]; intragastric gavage, 0.3 g three times a day, three months later, FIG. 6 right A-C): decrease; apoptosis of myocardial cells ([3]; intragastric gavage, 0.3 g three times a day, three months later, fluorescent staining, FIG. 6 left): significantly reduces; proliferation degree of pulmonary arterial smooth muscle / pathological remodeling of pulmonary vasculature ([4]; 8 control animals with mean pulmonary arterial pressure >25 mmHg, then berberine intragastric gavage 0.1 g/d for 42 days, at 14 weeks, FIG. 2): significantly reduced; mean pulmonary arterial pressure, one animal of the berberine group ([4]; beagles, intragastric gavage 0.1 g/d for 14 days before dehydrogenated monocrotaline 60 mg/kg, retested after 8 weeks, 1 of 10 animals): 28 mmHg; mean pulmonary arterial pressures, other 9 animals of the berberine group (bound) [4, 7]: < 25 mmHg; mean pulmonary arterial pressures, other 9 animals of the berberine group (mean ± spread) [4, 7]: 19±3.0 mmHg; stenosis degree in patients with restenosis treated afterwards (in-stent restenosis; 7 control patients with restenosis, oral berberine 0.3 g/d for 6 months, followed up 9 months, result in 6 patients, FIG. 5): significantly reduced; proportion of in-stent restenosis (in-stent restenosis; berberine 0.3 g/d from 3rd month after surgery for 6 months, coronary angiography at 12th month, control 14%, p=0.035): 4%; number of cases showing restenosis (in-stent restenosis; berberine 0.3 g/d from 3rd month after surgery for 6 months, coronary angiography at 12th month, control N=7): 2 cases; in-stent restenosis on coronary angiography, single patient (in-stent restenosis; patient with severe in-stent restenosis, continuous berberine treatment for 6 months, FIG. 5): substantially disappears; degree of stenosis (in-stent restenosis; restenosis cases of berberine group, 12th month after surgery, control 76.3±9%, p=0.029): 58±4%; right ventricular function (right ventricular systolic displacement amplitude, TAPSE) ([5]; FIG. 3): significantly improved; mean pulmonary arterial pressure ([5]; FIG. 4): significantly reduced; cardiac cavity, single patient ([6]; one patient with acute anterior myocardial infarction, berberine treatment for 3 months, FIG. 7): reduced; ejection fraction, single patient ([6]; one patient, day 22 after myocardial infarction, then berberine for 3 months, ultrasonic cardiography, FIG. 7): significantly increased; also recorded: significant increased; myocardial contractility / systolic function, single patient ([6]; one patient, berberine for 3 months, FIG. 7): improved; also recorded: significantly enhanced; mean left ventricular ejection fraction ([6]; patients with acute myocardial infarction, 0.3 g three times a day, three months later, control 41%, p=0.037): 53%
